Test systems include HOP-92 NSCLC; SF-268 CNS; OVCAR-5 ovarian; COLO 205 colon; HCT-15 colon; A549 NSCLC; CAKI-1 renal; A498 renal; SN12C renal; SK-MEL-2 melanoma.
Holding throughout (assay): inhibition of tumour cell growth, NCI panel, 48 h

Molecules are shown by their SMILES.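 Briefly, cells in 96-well plates were exposed to five compound concentrations for 48 h, and endpoints were estimated by linear interpolation. The concentration for 50% growth inhibition is given as GI50. TGI: total growth inhibition.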 Where a SMILES comes first, the peptide text is derived from it. [ ]: non-standard residue; d: D form.

For the compound `COC(=O)C(C)Oc1ccc(O)cc1` (configuration not stated), the TGI with HOP-92 NSCLC was above 100 µM; with SF-268 CNS, 44.5 µM; in the experiment on OVCAR-5 ovarian, above 100 µM; in the experiment on COLO 205 colon, above 100 µM; with HCT-15 colon, above 100 µM; in the experiment on A549 NSCLC, above 100 µM. For the same compound, the TGI with CAKI-1 renal, with A498 renal and in the experiment on SN12C renal was above 100 µM in each case.

Regarding `C#C[C@@H](CCCC)OC(=O)N[C@H](C)c1ccccc1`, the TGI is 53.1 µM with SK-MEL-2 melanoma; above 100 µM in the experiment with OVCAR-5 ovarian; above 100 µM in the experiment on A549 NSCLC; above 100 µM in the experiment with CAKI-1 renal; above 100 µM with SN12C renal.

In the case of `N#CNC1=NCCC(=O)N1CCc1c[nH]c2ccccc12`, the TGI in the experiment on SF-268 CNS, with COLO 205 colon, with HCT-15 colon, in the experiment on A549 NSCLC and in the experiment on SN12C renal was above 100 µM each time.

`CC(=O)OC1=C(CC(C)(C)C)C(=O)c2ccccc2C1=O`: the TGI with SF-268 CNS was 74.9 µM; in the experiment with SK-MEL-2 melanoma, 99.4 µM; in the experiment on COLO 205 colon, 72.5 µM; with HCT-15 colon, above 100 µM; in the experiment with CAKI-1 renal, above 100 µM; in the experiment on A498 renal it was 48.3 µM.

`C/C(=N\Nc1n[nH]c(=S)n1N)c1c(O)cc(C)oc1=O`: the TGI in the experiment on HOP-92 NSCLC, with SF-268 CNS, in the experiment on SK-MEL-2 melanoma, in the experiment with HCT-15 colon, with A549 NSCLC and in the experiment with CAKI-1 renal was above 100 µM throughout. In addition, the TGI with A498 renal and with SN12C renal was above 100 µM in each case.

`CSCC[C@H](NC(=O)[C@@H](N)CC(N)=O)C(=O)N[C@@H](Cc1c[nH]c2ccccc12)C(=O)N[C@@H](CCC(N)=O)C(=O)N[C@@H](CCC(=O)O)C(=O)N[C@H](C(=O)NCC(=O)N[C@@H](CCCCN)C(=O)N[C@H](C)C(=O)O)C(C)C` (H-NMWQEVGK[dA]-OH): the TGI with HOP-92 NSCLC, with SF-268 CNS, in the experiment on OVCAR-5 ovarian, in the experiment with COLO 205 colon, in the experiment on HCT-15 colon and with A549 NSCLC was above 100 µM throughout. Also, the TGI in the experiment with CAKI-1 renal, with A498 renal and in the experiment with SN12C renal was above 100 µM in each case.

As to `Cc1cc2nc(-c3ccc(O)c(O)c3)n(Cc3ccc(O)c(O)c3)c2cc1C`, the GI50 was 9.7 µM with HOP-92 NSCLC; 18.5 µM in the experiment with SF-268 CNS; above 100 µM with OVCAR-5 ovarian; 24.5 µM in the experiment on COLO 205 colon; 7.1 µM in the experiment on HCT-15 colon; 40.2 µM with A549 NSCLC. For the same compound, the GI50 in the experiment with CAKI-1 renal was 17 µM; with A498 renal, 77.2 µM; with SN12C renal it was 18.5 µM. The TGI in the experiment with HOP-92 NSCLC was 55 µM; in the experiment with SF-268 CNS, 84.3 µM; in the experiment with OVCAR-5 ovarian it was above 100 µM; in the experiment on COLO 205 colon, above 100 µM; in the experiment with HCT-15 colon, 35.8 µM; in the experiment with A549 NSCLC it was above 100 µM. The values for the TGI in the experiment on CAKI-1 renal, in the experiment on A498 renal and in the experiment with SN12C renal were 81.1 µM, above 100 µM and 44.8 µM, respectively.

`Cc1nc(-n2nc(-c3ccccc3)cc2-c2ccccc2)sc1C(=O)CC(=O)C(=O)Nc1ccc(O)cc1`: the TGI in the experiment on SF-268 CNS, in the experiment on SK-MEL-2 melanoma, in the experiment on OVCAR-5 ovarian, in the experiment on COLO 205 colon, in the experiment with HCT-15 colon and in the experiment on A549 NSCLC was above 100 µM each time. Also, the TGI with CAKI-1 renal, in the experiment on A498 renal and in the experiment on SN12C renal was above 100 µM each time.

In the case of `COc1ccc(F)cc1-c1ccnc2[nH]c(C3=CCN(C4CCC(CC(=O)O)CC4)CC3)cc12` (configuration not stated), the GI50 in the experiment on HOP-92 NSCLC is 0.0568 µM; in the experiment on SF-268 CNS, 0.144 µM; in the experiment on OVCAR-5 ovarian, 0.268 µM; in the experiment on COLO 205 colon, 0.0747 µM; in the experiment on HCT-15 colon, 0.249 µM; with A549 NSCLC, 0.424 µM. The GI50 in the experiment with CAKI-1 renal was 0.434 µM; in the experiment on A498 renal, 0.21 µM; in the experiment with SN12C renal, 0.146 µM. Also, the TGI was 0.666 µM in the experiment with HOP-92 NSCLC; 17.7 µM in the experiment on SF-268 CNS; above 100 µM in the experiment on OVCAR-5 ovarian; 0.561 µM in the experiment with COLO 205 colon; above 100 µM in the experiment with HCT-15 colon; above 100 µM with A549 NSCLC. Also, the results for the TGI in the experiment with CAKI-1 renal, in the experiment on A498 renal and in the experiment on SN12C renal were above 100 µM, 0.543 µM and 35.5 µM, respectively.

In the case of `CCOC(=O)CC(C)C1(C=O)CCCCC1=O` (configuration not stated), the TGI in the experiment on SF-268 CNS, with SK-MEL-2 melanoma, with OVCAR-5 ovarian, in the experiment with COLO 205 colon, in the experiment on HCT-15 colon and with A549 NSCLC was above 100 µM each time. For the same compound, the TGI with CAKI-1 renal, in the experiment with A498 renal and in the experiment on SN12C renal was above 100 µM throughout.

For `COC(=O)[C@@H](C)C[C@H](Cc1ccccc1)NC(=O)c1csc([C@@H](C[C@H](C(C)C)N(C)C(=O)[C@@H](NC(=O)[C@H]2CCCCN2C)C(C(F)(F)F)C(F)(F)F)OC(C)=O)n1`, the GI50 in the experiment on HOP-92 NSCLC is 0.0185 µM; in the experiment with SF-268 CNS, 0.108 µM; in the experiment with SK-MEL-2 melanoma it was 0.0777 µM; in the experiment on OVCAR-5 ovarian, 0.0643 µM; with COLO 205 colon, 0.0658 µM; in the experiment on HCT-15 colon it was 0.0645 µM. The GI50 with A549 NSCLC was 0.114 µM; in the experiment on A498 renal, 0.0829 µM; with SN12C renal, 0.106 µM. Besides, the TGI was 1.04 µM in the experiment with HOP-92 NSCLC; above 16.7 µM in the experiment with SF-268 CNS; above 16.7 µM in the experiment with SK-MEL-2 melanoma; above 16.7 µM with OVCAR-5 ovarian; 0.556 µM with COLO 205 colon; above 16.7 µM with HCT-15 colon. Also, the TGI in the experiment on A549 NSCLC, with A498 renal and in the experiment on SN12C renal was above 16.7 µM in each case.

In the case of `N/C(CC(=O)NOC(=O)c1ccccc1)=N/OC(=O)c1ccccc1`, the TGI in the experiment with HOP-92 NSCLC was above 100 µM; with SF-268 CNS, 75.1 µM; in the experiment with OVCAR-5 ovarian, above 100 µM; in the experiment on COLO 205 colon, above 100 µM; with HCT-15 colon, above 100 µM; in the experiment with A549 NSCLC it was above 100 µM. In addition, the TGI in the experiment on CAKI-1 renal, with A498 renal and in the experiment on SN12C renal was above 100 µM each time.

On to `Nc1ccn(C2CC3OCC3O2)c(=O)n1` (configuration not stated), for which the TGI in the experiment with SF-268 CNS, in the experiment on SK-MEL-2 melanoma, in the experiment with OVCAR-5 ovarian, in the experiment with COLO 205 colon, in the experiment with HCT-15 colon and with A549 NSCLC was above 100 µM throughout. The TGI in the experiment on CAKI-1 renal, in the experiment with A498 renal and in the experiment on SN12C renal was above 100 µM in each case.

For the origin of these results see PubChem BioAssay (NCI).
